{
  "source": "the NIST ThermoML archive (doi:10.1021/je060219e)",
  "test": "φn = volume fraction of the nth substance listed",
  "settings": "101 kPa, Liquid",
  "note": "Several values for one entry are separate records, joined by “and”; a condition that tells them apart may be missing. Equal entries are not always repeated. ± gives the expanded uncertainty stated by the source.",
  "data": [
    {"smiles": "CCO", "note": "[ethanol] + O", "values": [
      {"measurement": "viscosity", "setting": "303.15 K, φ1 = 0.1", "result": "0.6791 ± 0.07", "unit": "mPa·s"},
      {"measurement": "viscosity", "setting": "303.15 K, φ1 = 0.2", "result": "0.9735 ± 0.094", "unit": "mPa·s"},
      {"measurement": "viscosity", "setting": "303.15 K, φ1 = 0.3", "result": "1.186 ± 0.11", "unit": "mPa·s"},
      {"measurement": "viscosity", "setting": "303.15 K, φ1 = 0.4", "result": "1.254 ± 0.12", "unit": "mPa·s"},
      {"measurement": "viscosity", "setting": "303.15 K, φ1 = 0.5", "result": "1.426 ± 0.13", "unit": "mPa·s"},
      {"measurement": "viscosity", "setting": "308.15 K, φ1 = 0.1", "result": "0.6191 ± 0.066", "unit": "mPa·s"},
      {"measurement": "viscosity", "setting": "308.15 K, φ1 = 0.2", "result": "0.871 ± 0.086", "unit": "mPa·s"},
      {"measurement": "viscosity", "setting": "308.15 K, φ1 = 0.3", "result": "0.8816 ± 0.087", "unit": "mPa·s"},
      {"measurement": "viscosity", "setting": "308.15 K, φ1 = 0.4", "result": "1.147 ± 0.11", "unit": "mPa·s"},
      {"measurement": "viscosity", "setting": "308.15 K, φ1 = 0.5", "result": "1.216 ± 0.11", "unit": "mPa·s"},
      {"measurement": "viscosity", "setting": "313.15 K, φ1 = 0.1", "result": "0.5909 ± 0.063", "unit": "mPa·s"},
      {"measurement": "viscosity", "setting": "313.15 K, φ1 = 0.2", "result": "0.7442 ± 0.076", "unit": "mPa·s"},
      {"measurement": "viscosity", "setting": "313.15 K, φ1 = 0.3", "result": "0.8614 ± 0.085", "unit": "mPa·s"},
      {"measurement": "viscosity", "setting": "313.15 K, φ1 = 0.4", "result": "0.9262 ± 0.09", "unit": "mPa·s"},
      {"measurement": "viscosity", "setting": "313.15 K, φ1 = 0.5", "result": "1.14 ± 0.11", "unit": "mPa·s"},
      {"measurement": "viscosity", "setting": "318.15 K, φ1 = 0.1", "result": "0.5763 ± 0.062", "unit": "mPa·s"},
      {"measurement": "viscosity", "setting": "318.15 K, φ1 = 0.2", "result": "0.6476 ± 0.068", "unit": "mPa·s"},
      {"measurement": "viscosity", "setting": "318.15 K, φ1 = 0.3", "result": "0.797 ± 0.08 mPa·s and 0.79 ± 0.079 mPa·s"},
      {"measurement": "viscosity", "setting": "318.15 K, φ1 = 0.4", "result": "0.8844 ± 0.087", "unit": "mPa·s"},
      {"measurement": "viscosity", "setting": "318.15 K, φ1 = 0.5", "result": "0.8776 ± 0.087", "unit": "mPa·s"},
      {"measurement": "viscosity", "setting": "323.15 K, φ1 = 0.1", "result": "0.5305 ± 0.058", "unit": "mPa·s"},
      {"measurement": "viscosity", "setting": "323.15 K, φ1 = 0.2", "result": "0.598 ± 0.064", "unit": "mPa·s"},
      {"measurement": "viscosity", "setting": "323.15 K, φ1 = 0.3", "result": "0.698 ± 0.072", "unit": "mPa·s"},
      {"measurement": "viscosity", "setting": "323.15 K, φ1 = 0.4", "result": "0.7081 ± 0.073", "unit": "mPa·s"},
      {"measurement": "viscosity", "setting": "323.15 K, φ1 = 0.5", "result": "0.825 ± 0.082", "unit": "mPa·s"}
    ]}
  ]
}
